Experimental data: publication PMC11389391, “Acetylation of SAMHD1 at lysine 580 is crucial for blocking HIV-1 infection” (mBio, 2024)

Biological target: T1, SAMHD1_114-626 (Homo sapiens, UniProt Q9Y3Z3)
T1 construct: gene SAMHD1; purified recombinant residues 114-626 (HD domain and C-terminus, SAM domain removed); monomer without nucleotides, tetramer with GTP/dTTP
Test: 1H NMR dTTP hydrolysis rate versus GTP concentration
Type: biochemical
Text: 1H NMR dTTP hydrolysis rate versus GTP concentration on SAMHD1_114-626 | we determine the EC50^GTP (half-maximal effective concentration) and kcat

T1 sequence (Q9Y3Z3 114-626): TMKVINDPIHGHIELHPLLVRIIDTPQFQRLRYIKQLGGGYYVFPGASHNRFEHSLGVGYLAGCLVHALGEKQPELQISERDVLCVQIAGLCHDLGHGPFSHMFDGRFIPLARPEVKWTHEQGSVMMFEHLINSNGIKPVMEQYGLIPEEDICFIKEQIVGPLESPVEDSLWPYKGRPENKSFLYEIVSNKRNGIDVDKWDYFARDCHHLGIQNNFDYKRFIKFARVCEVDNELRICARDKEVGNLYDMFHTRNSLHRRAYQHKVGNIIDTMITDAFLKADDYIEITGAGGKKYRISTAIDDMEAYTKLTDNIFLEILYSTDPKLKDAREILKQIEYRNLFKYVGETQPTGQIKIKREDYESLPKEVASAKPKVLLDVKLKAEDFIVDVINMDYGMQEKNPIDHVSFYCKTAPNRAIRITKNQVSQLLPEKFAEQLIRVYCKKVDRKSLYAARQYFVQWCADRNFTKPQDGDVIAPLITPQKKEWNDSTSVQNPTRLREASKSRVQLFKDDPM

EC50: 1700 nM
Structure (SMILES): Nc1nc2c(ncn2[C@@H]2O[C@H](COP(=O)(O)OP(=O)(O)OP(=O)(O)O)[C@@H](O)[C@H]2O)c(=O)[nH]1 [GTP]
